# Laboratory results from PubChem BioAssay (NCI).
#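 Step 1: Grow cells in 96-well plates. Step 2: Expose to compound for 48 hours at 5 concentrations. Step 3: Interpolate endpoints linearly; if unreached, use highest concentration. GI50: concentration for 50% inhibition of growth. TGI marks complete inhibition of growth.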
# Assays:
# Assay in all cases: inhibition of tumour cell growth, NCI panel, 48 h
# OVCAR-4 ovarian = test system: OVCAR-4 ovarian
# HT29 colon = test system: HT29 colon
# RXF 393 renal = test system: RXF 393 renal
# A549 NSCLC = test system: A549 NSCLC
# UACC-62 melanoma = test system: UACC-62 melanoma
# HCT-116 colon = test system: HCT-116 colon
# IGROV1 ovarian = test system: IGROV1 ovarian
# K-562 leukemia = test system: K-562 leukemia
# TK-10 renal = test system: TK-10 renal
# HOP-92 NSCLC = test system: HOP-92 NSCLC
# 786-0 renal = test system: 786-0 renal
# HOP-62 NSCLC = test system: HOP-62 NSCLC
# M14 melanoma = test system: M14 melanoma
# HCT-15 colon = test system: HCT-15 colon
# DU-145 prostate = test system: DU-145 prostate
# NCI/ADR-RES ovarian = test system: NCI/ADR-RES ovarian
# HCC-2998 colon = test system: HCC-2998 colon
# RPMI-8226 leukemia = test system: RPMI-8226 leukemia
# SNB-75 CNS = test system: SNB-75 CNS
# UACC-257 melanoma = test system: UACC-257 melanoma
# A498 renal = test system: A498 renal
# MOLT-4 leukemia = test system: MOLT-4 leukemia
# SF-295 CNS = test system: SF-295 CNS
# ACHN renal = test system: ACHN renal
# HS 578T breast = test system: HS 578T breast
# MCF7 breast = test system: MCF7 breast
# KM12 colon = test system: KM12 colon
# NCI-H522 lung = test system: NCI-H522 lung
# SK-MEL-5 melanoma = test system: SK-MEL-5 melanoma
# MALME-3M melanoma = test system: MALME-3M melanoma
# MDA-MB-231 breast = test system: MDA-MB-231 breast
# SK-MEL-28 melanoma = test system: SK-MEL-28 melanoma
# OVCAR-5 ovarian = test system: OVCAR-5 ovarian
# OVCAR-8 ovarian = test system: OVCAR-8 ovarian
# BT-549 breast = test system: BT-549 breast
# SK-OV-3 ovarian = test system: SK-OV-3 ovarian
# LOX IMVI melanoma = test system: LOX IMVI melanoma
# COLO 205 colon = test system: COLO 205 colon
# OVCAR-3 ovarian = test system: OVCAR-3 ovarian
# SF-268 CNS = test system: SF-268 CNS
# CAKI-1 renal = test system: CAKI-1 renal
# EKVX NSCLC = test system: EKVX NSCLC
# MDA-MB-435 = test system: MDA-MB-435
# SF-539 CNS = test system: SF-539 CNS
# SNB-19 CNS = test system: SNB-19 CNS
# SR leukemia = test system: SR leukemia
# SW-620 colon = test system: SW-620 colon
# T-47D breast = test system: T-47D breast
# HL-60(TB) leukemia = test system: HL-60(TB) leukemia
# SK-MEL-2 melanoma = test system: SK-MEL-2 melanoma
# NCI-H226 lung = test system: NCI-H226 lung
# UO-31 renal = test system: UO-31 renal
# U251 CNS = test system: U251 CNS
# SN12C renal = test system: SN12C renal
smiles,measurement,setting,value
O=S(=O)(NC1=NCCN1C(=S)SN1CCn2c1nsc2=S)c1ccccc1Cl,GI50,OVCAR-4 ovarian,15.6 µM
same,TGI,OVCAR-4 ovarian,> 100 µM
same,GI50,HT29 colon,15.4 µM
same,TGI,HT29 colon,> 100 µM
same,GI50,RXF 393 renal,4.38 µM
same,TGI,RXF 393 renal,46.5 µM
same,GI50,A549 NSCLC,32.5 µM
same,TGI,A549 NSCLC,> 100 µM
same,GI50,UACC-62 melanoma,19.3 µM
same,TGI,UACC-62 melanoma,44.1 µM
same,GI50,HCT-116 colon,12.2 µM
same,TGI,HCT-116 colon,28.2 µM
same,GI50,IGROV1 ovarian,34.8 µM
same,TGI,IGROV1 ovarian,> 100 µM
same,GI50,K-562 leukemia,4.62 µM
same,TGI,K-562 leukemia,46.3 µM
same,GI50,TK-10 renal,16.3 µM
same,TGI,TK-10 renal,64.2 µM
same,GI50,HOP-92 NSCLC,11 µM
same,TGI,HOP-92 NSCLC,89.7 µM
same,GI50,786-0 renal,16.7 µM
same,TGI,786-0 renal,39.1 µM
same,GI50,HOP-62 NSCLC,17.4 µM
same,TGI,HOP-62 NSCLC,33.9 µM
same,GI50,M14 melanoma,12.8 µM
same,TGI,M14 melanoma,27.1 µM
same,GI50,HCT-15 colon,18.7 µM
same,TGI,HCT-15 colon,53 µM
same,GI50,DU-145 prostate,9.15 µM
same,TGI,DU-145 prostate,53.1 µM
same,GI50,NCI/ADR-RES ovarian,27.7 µM
same,TGI,NCI/ADR-RES ovarian,> 100 µM
same,GI50,HCC-2998 colon,15.9 µM
same,TGI,HCC-2998 colon,29.5 µM
same,GI50,RPMI-8226 leukemia,3.5 µM
same,TGI,RPMI-8226 leukemia,26.2 µM
same,GI50,SNB-75 CNS,13.3 µM
same,TGI,SNB-75 CNS,55.6 µM
same,GI50,UACC-257 melanoma,31.6 µM
same,TGI,UACC-257 melanoma,> 100 µM
same,GI50,A498 renal,24.6 µM
same,TGI,A498 renal,59 µM
same,GI50,MOLT-4 leukemia,2.02 µM
same,TGI,MOLT-4 leukemia,14.1 µM
same,GI50,SF-295 CNS,21.4 µM
same,TGI,SF-295 CNS,61 µM
same,GI50,ACHN renal,24.5 µM
same,TGI,ACHN renal,> 100 µM
same,GI50,HS 578T breast,29.6 µM
same,TGI,HS 578T breast,> 100 µM
same,GI50,MCF7 breast,11.5 µM
same,TGI,MCF7 breast,> 100 µM
same,GI50,KM12 colon,17 µM
same,TGI,KM12 colon,42.8 µM
same,GI50,NCI-H522 lung,6.08 µM
same,TGI,NCI-H522 lung,21.9 µM
same,GI50,SK-MEL-5 melanoma,15.8 µM
same,TGI,SK-MEL-5 melanoma,31.1 µM
same,GI50,MALME-3M melanoma,12.5 µM
same,TGI,MALME-3M melanoma,67.5 µM
same,GI50,MDA-MB-231 breast,22.5 µM
same,TGI,MDA-MB-231 breast,71.1 µM
same,GI50,SK-MEL-28 melanoma,16.1 µM
same,TGI,SK-MEL-28 melanoma,65.7 µM
same,GI50,OVCAR-5 ovarian,12.2 µM
same,TGI,OVCAR-5 ovarian,27.7 µM
same,GI50,OVCAR-8 ovarian,28.6 µM
same,TGI,OVCAR-8 ovarian,> 100 µM
same,GI50,BT-549 breast,8 µM
same,TGI,BT-549 breast,36 µM
same,GI50,SK-OV-3 ovarian,57 µM
same,TGI,SK-OV-3 ovarian,> 100 µM
same,GI50,LOX IMVI melanoma,16.5 µM
same,TGI,LOX IMVI melanoma,62.9 µM
same,GI50,COLO 205 colon,15.1 µM
same,TGI,COLO 205 colon,55 µM
same,GI50,OVCAR-3 ovarian,3.89 µM
same,TGI,OVCAR-3 ovarian,17.7 µM
same,GI50,SF-268 CNS,13.3 µM
same,TGI,SF-268 CNS,87.6 µM
same,GI50,CAKI-1 renal,12.3 µM
same,TGI,CAKI-1 renal,41.6 µM
same,GI50,EKVX NSCLC,36.6 µM
same,TGI,EKVX NSCLC,> 100 µM
same,GI50,MDA-MB-435,8.67 µM
same,TGI,MDA-MB-435,29.2 µM
same,GI50,SF-539 CNS,12.9 µM
same,TGI,SF-539 CNS,31.5 µM
same,GI50,SNB-19 CNS,41 µM
same,TGI,SNB-19 CNS,> 100 µM
same,GI50,SR leukemia,0.469 µM
same,TGI,SR leukemia,3.31 µM
same,GI50,SW-620 colon,10.4 µM
same,TGI,SW-620 colon,77.9 µM
same,GI50,T-47D breast,17 µM
same,TGI,T-47D breast,> 100 µM
same,GI50,HL-60(TB) leukemia,0.342 µM
same,TGI,HL-60(TB) leukemia,8.62 µM
same,GI50,SK-MEL-2 melanoma,16.9 µM
same,TGI,SK-MEL-2 melanoma,40 µM
same,GI50,NCI-H226 lung,35.7 µM
same,TGI,NCI-H226 lung,> 100 µM
same,GI50,UO-31 renal,26.1 µM
same,TGI,UO-31 renal,> 100 µM
same,GI50,U251 CNS,21.4 µM
same,TGI,U251 CNS,46 µM
same,GI50,SN12C renal,31.6 µM
same,TGI,SN12C renal,> 100 µM
